Data taken from patent US20110160462A1, “CRYSTALLINE FORMS OF THIAZOLIDINEDIONE COMPOUND AND ITS MANUFACTURING METHOD” (DAIICHI SANKYO COMPANY, LIMITED, priority 2008, published 2011).
Entries after “also recorded” stand apart in the source; their conditions may differ. Read-outs that look alike come from different tables or passages of the source.

Legend:
[1] = biological target: T1, peroxisome proliferator-activated receptor (PPAR) γ (Homo sapiens, UniProt P37231); details: as disclosed in Patent Documents 1 to 5; cited from earlier work
T1 sequence (P37231 1-505): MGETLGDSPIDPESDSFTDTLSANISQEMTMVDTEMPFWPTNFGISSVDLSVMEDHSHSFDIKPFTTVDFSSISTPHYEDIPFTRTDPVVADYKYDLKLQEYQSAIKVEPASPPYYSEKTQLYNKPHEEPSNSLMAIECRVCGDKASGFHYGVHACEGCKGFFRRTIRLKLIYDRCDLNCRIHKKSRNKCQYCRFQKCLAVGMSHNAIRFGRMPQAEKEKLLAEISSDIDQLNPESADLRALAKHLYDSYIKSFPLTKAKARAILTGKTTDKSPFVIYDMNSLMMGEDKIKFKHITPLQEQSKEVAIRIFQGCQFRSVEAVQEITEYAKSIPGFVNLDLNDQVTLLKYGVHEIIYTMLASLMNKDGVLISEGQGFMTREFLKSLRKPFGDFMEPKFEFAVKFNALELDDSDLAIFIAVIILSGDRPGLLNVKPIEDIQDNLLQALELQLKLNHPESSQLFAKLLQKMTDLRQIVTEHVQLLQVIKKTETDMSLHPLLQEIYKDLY

[2] = as disclosed in Japanese Patent No. 3488099; cited from earlier work
[3] = tested on: cancer cells including human stomach cancer cells, human breast cancer cells, small cell lung cancer, pancreas cancer cells, prostate cancer cells, kidney …; details: Test Example 1 in WO 2007/091622; cited from earlier work
[4] = tested on: human leukemia cells; details: Test Example 2 in WO 2007/091622; cited from earlier work
[5] = tested on: human colon cancer cell lines; details: Test Example 3 in WO 2007/091622; cited from earlier work
[6] = tested on: cancer cells; details: in combination with an epidermal growth factor receptor (EGFR) inhibitor; Test Example 4 in WO 2007/091622; cited from earlier work
[7] = tested on: human non-small-cell lung cancer; details: Test Example 5 in WO 2007/091622, cited from earlier work
[8] = tested on: cancer cells; details: in combination with a VEGFR inhibitor or a Raf kinase inhibitor; Test Example 6 in WO 2007/091622; cited from earlier work
[9] = tested on: human kidney cancer; details: Test Example 7 in WO 2007/091622, cited from earlier work
[10] = Solubility in dilute hydrochloric acid (Test Example 3); details: for The concentration of 5-(4-{[6-(4-amino-3,5-dimethylphenoxy)-1-methyl-1-H-benzimidazol-2-yl]methoxy}benzyl)-1,3-thiazolidine-2,4-dione in dilute hydrochloric acid: dilute hydrochloric acid 9.6 mg/g (pH about 0.7), 25° C., 500 mg in 5 mL, sampled after 6 minutes
Description: Concentrated hydrochloric acid was diluted with water to prepare dilute hydrochloric acid (with a pH of about 0.7 at 25° C.) with a hydrochloric acid concentration of 9.6 mg/g, which was used as a test liquid. 500 mg of the crystalline form was weighed and added to 5 mL of the test liquid at 25° C. and stirred at the same temperature. After 6 minutes, the resulting test liquid was sampled and filtered. The concentration of 5-(4-{[6-(4-amino-3,5-dimethylphenoxy)-1-methyl-1-H-benzimi dazol-2-yl]methoxy}benzyl) 3-thiazolidine-2,4-dione in the filtrate was determined.
The concentration of 5-(4-{[6-(4-amino-3,5-dimethylphenoxy)-1-methyl-1-H-benzimi dazol-2-yl]methoxy}benzyl) 3-thiazolidine-2,4-dione was determined by the method described below.
Water, acetonitrile and methanol were mixed in a volume ratio of 55:40:5 to form a sample solvent.
In the sample solvent was dissolved 0.2 g of isoamyl 4-hydroxybenzoate so that 200 mL of an internal standard solution was obtained. About 0.04 g of a standard sample of 5-(4-{[6-(4-amino-3,5-dimethylphenoxy)-1-methyl-1-H-benzimi dazol-2-yl]methoxy}benzyl)-1,3-thiazolidine-2,4-dione dihydrochloride monohydrate was precisely weighed, transferred to a 200 mL measuring flask and dissolved in the sample solvent to form 200 mL of a solution. 5 mL of the solution was precisely measured and transferred to a 50 mL measuring flask. 10 mL of the internal standard solution was precisely added to the measuring flask, and the sample solvent was further added thereto to form 50 mL of a standard solution.
After sampling, the test liquid was filtered, and about 0.04 g of the filtered test liquid was precisely weighed and transferred to a 50 mL measuring flask. About 2.5 mL of dimethyl sulfoxide was added thereto. After 10 mL of the internal standard solution was added thereto, the sample solvent was further added thereto to form 50 mL of a sample solution.
The concentration was measured under the test conditions below.
The concentration is calculated from the following formula.
The concentration (mg/g) of the test liquid=1000×(QT×WS×FP×502.58)/(QS×WT×40×593.52),
wherein WS: the weight (g) of the standard sample when the standard solution is prepared; WT: the weight (g) of the test liquid when the sample solution is prepared; FP: the purity factor of the standard sample; QS: the value obtained by dividing the peak area of the standard sample in the chromatogram of the standard solution by the peak area of the internal standard; and QT: the value obtained by dividing the peak area of the sample in the chromatogram of the sample solution by the peak area of the internal standard.

For Cc1cc(Oc2ccc3nc(COc4ccc(CC5SC(=O)NC5=O)cc4)n(C)c3c2)cc(C)c1N (centres unmarked) [Compound (I), 5-(4-{[6-(4-amino-3,5-dimethylphenoxy)-1-methyl-1-H-benzimidazol-2-yl]methoxy}benzyl)-1,3-thiazolidine-2,4-dione], the “ability to activate PPAR γ” value [1] is listed as “significant ability to activate” and the “activity to ameliorate insulin resistance and to reduce blood sugar” value [2] is listed as “significant activity to ameliorate insulin resistance and to reduce blood sugar”.

In the case of Cc1cc(Oc2ccc3nc(COc4ccc(CC5SC(=O)NC5=O)cc4)n(C)c3c2)cc(C)c1N.Cl.Cl (centres unmarked) [dihydrochloride of Compound (I), 5-(4-{[6-(4-amino-3,5-dimethylphenoxy)-1-methyl-1-H-benzimidazol-2-yl]methoxy}benzyl)-1,3-thiazolidine-2,4-dione dihydrochloride], the “activity to inhibit the growth of cancer cells” value [3] is listed as “significant activity to inhibit the growth”, the “growth inhibition of human leukemia cells” value [4] is listed as “significantly inhibits the growth-inhibiting activity” and the “antitumor activity in vivo against human colon cancer cell lines” value [5] is listed as “significant antitumor activity”. The “activity to inhibit the growth of cancer cells in combination” value [6] was “synergistic activity to inhibit the growth”, the “antitumor activity against human non-small-cell lung cancer” value ([7]; alone) was “has antitumor activity” and the “antitumor activity against human non-small-cell lung cancer in combination” value ([7]; in combination with an EGFR inhibitor) was “enhanced antitumor activity”. For the same compound, the “activity to inhibit the growth of cancer cells in combination” value [8] was “synergistic activity to inhibit the growth”, the “antitumor activity against human kidney cancer” value ([9]; alone) was “has antitumor activity” and the “antitumor activity against human kidney cancer in combination” value ([9]; in combination with a VEGFR inhibitor or a Raf kinase inhibitor) was “enhanced antitumor activity”.

In the case of Cc1cc(Oc2ccc3nc(COc4ccc(CC5SC(=O)NC5=O)cc4)n(C)c3c2)cc(C)c1N.Cl.Cl.O (centres unmarked) [Crystalline form A, 5-(4-{[6-(4-amino-3,5-dimethylphenoxy)-1-methyl-1-H-benzimidazol-2-yl]methoxy}benzyl)-1,3-thiazolidine-2,4-dione dihydrochloride monohydrate], the “The concentration of 5-(4-{[6-(4-amino-3,5-dimethylphenoxy)-1-methyl-1-H-benzimidazol-2-yl]methoxy}benzyl)-1,3-thiazolidine-2,4-dione in dilute hydrochloric acid” value ([10]; listed as Crystalline form A manufactured according to Example 4, dihydrochloride monohydrate) is reported as 0.325 mg/g and the “Solubility / concentration in dilute hydrochloric acid, comparison in words” value ([10]; dilute hydrochloric acid, dihydrochloride monohydrate) is reported as “highest concentration among the dihydrochloride monohydrate crystalline forms; also recorded: higher solubility than Crystalline form B”.

With Cc1cc(Oc2ccc3nc(COc4ccc(CC5SC(=O)NC5=O)cc4)n(C)c3c2)cc(C)c1N.Cl.Cl.O (centres unmarked) [5-(4-{[6-(4-amino-3,5-dimethylphenoxy)-1-methyl-1-H-benzimidazol-2-yl]methoxy}benzyl)-1,3-thiazolidine-2,4-dione dihydrochloride monohydrate] the “The concentration of 5-(4-{[6-(4-amino-3,5-dimethylphenoxy)-1-methyl-1-H-benzimidazol-2-yl]methoxy}benzyl)-1,3-thiazolidine-2,4-dione in dilute hydrochloric acid” value ([10]; dihydrochloride monohydrate) was 0.276 mg/g.
